Experimental data from paper PMC4440444 (Theranostics, 2015).
Read-outs that look alike come from different tables or passages of the source.

Tested on: glioma
Format: in vivo, human
Settings: for T/NTmax (maximum target to non-target ratio): brain PET/CT; for SUVmax in glioma: brain PET/CT before surgery

For ^18F-FDG, the “T/NTmax in glioma, mean ± SD” value (eight glioma patients) was 0.86 ± 0.41, the “SUVmax in glioma tissues, range” value (eight glioma patients, range) was 3.50-12.27 and the “T/NTmax in glioma, range” value (eight glioma patients, range) was 0.35-1.59. For the same substance, the “T/NTmax (maximum target to non-target ratio)” value (patient No. 1, WHO grade II) was 0.72, the SUVmax in glioma (patient No. 1, WHO grade II) was 7.40 and the “T/NTmax (maximum target to non-target ratio)” value (patient No. 2, WHO grade II) was 0.35. For the same substance, the SUVmax in glioma (patient No. 2, WHO grade II) was 3.50, the “T/NTmax (maximum target to non-target ratio)” value (patient No. 3, WHO grade III) was 0.61 and the SUVmax in glioma (patient No. 3, WHO grade III) was 7.27. For the same substance, the “T/NTmax (maximum target to non-target ratio)” value (patient No. 4, WHO grade IV) was 0.80, the SUVmax in glioma (patient No. 4, WHO grade IV) was 12.27 and the “T/NTmax (maximum target to non-target ratio)” value (patient No. 5, WHO grade IV) was 0.72. For the same substance, the SUVmax in glioma (patient No. 5, WHO grade IV) was 5.76, the “T/NTmax (maximum target to non-target ratio)” value (patient No. 6, WHO grade IV) was 0.78 and the SUVmax in glioma (patient No. 6, WHO grade IV) was 9.87. For the same substance, the SUVmax in glioma (patient No. 7, WHO grade IV) was 8.47, the “T/NTmax (maximum target to non-target ratio)” value (patient No. 8, WHO grade IV) was 1.59 and the SUVmax in glioma (patient No. 8, WHO grade IV) was 4.20.
